This passage reports IC50 results from patent US20240226115A1, “AXL INHIBITOR COMPOUNDS” (ARCUS BIOSCIENCES, INC., priority 2021, published 2024).

In assay [1] the target is T1, Axl (Homo sapiens, UniProt P30530).
T1 sequence (P30530 26-894): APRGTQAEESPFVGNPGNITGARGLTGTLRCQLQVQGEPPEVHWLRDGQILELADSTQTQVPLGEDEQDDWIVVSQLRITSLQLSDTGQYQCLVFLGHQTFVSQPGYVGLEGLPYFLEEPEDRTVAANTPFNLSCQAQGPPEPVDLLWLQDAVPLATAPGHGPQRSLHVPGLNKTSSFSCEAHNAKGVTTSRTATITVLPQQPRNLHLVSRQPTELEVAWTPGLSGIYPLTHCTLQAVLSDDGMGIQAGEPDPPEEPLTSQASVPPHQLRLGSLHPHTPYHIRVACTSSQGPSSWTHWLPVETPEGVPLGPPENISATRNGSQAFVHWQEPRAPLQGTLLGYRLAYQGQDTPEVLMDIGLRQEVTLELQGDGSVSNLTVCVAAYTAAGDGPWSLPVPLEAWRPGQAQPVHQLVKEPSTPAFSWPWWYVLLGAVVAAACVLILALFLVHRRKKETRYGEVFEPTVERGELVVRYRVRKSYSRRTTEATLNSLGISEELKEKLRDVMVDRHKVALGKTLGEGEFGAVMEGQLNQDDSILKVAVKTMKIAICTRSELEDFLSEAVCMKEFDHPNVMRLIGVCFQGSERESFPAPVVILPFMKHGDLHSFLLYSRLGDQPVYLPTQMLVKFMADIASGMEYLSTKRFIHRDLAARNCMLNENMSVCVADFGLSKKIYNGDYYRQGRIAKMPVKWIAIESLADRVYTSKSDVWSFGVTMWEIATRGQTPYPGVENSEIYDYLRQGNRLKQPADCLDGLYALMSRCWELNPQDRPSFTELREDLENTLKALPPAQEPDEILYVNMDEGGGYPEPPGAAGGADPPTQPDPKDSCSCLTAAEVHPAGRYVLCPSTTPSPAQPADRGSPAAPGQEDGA
Briefly: Axl NanoBRET intracellular kinase assay (Cell Binding). Also noted: host or cells: HEK-293. The note with it: HEK-293 cells transfected with Axl-NanoLuc fusion vector; displacement of K-5 NanoBRET tracer. How it is done: Axl NanoBRET™ intracellular kinase assay (Promega, N2540) was performed according to manufacturer's recommendation. In brief, HEK-293 cells are transiently transfected with Axl-NanoLuc fusion vector (Promega, NV1071), utilizing Fugene HD transfection reagent (Promega, E2311) a day before experiment following manufacturer's recommendation.
The day of the assay, the cells were collected and resuspended in Opti-MEM media (ThermoFisher, 31985070) at 2e5 cells/mL concentration. Testing compounds were serial diluted and dispensed into a white 384 well polystyrene plate at 200 nL in 100% DMSO. 40 μL of resuspended cells is then added per well for a final condition of 8K cells/well with 0.5% DMSO. After one-hour compound pre-incubation at 37° C. and 5% CO2, cells were further incubated with 0.35 μM K-5 NanoBRET tracer for two-hours at 37° C. and 5% CO2. […] of 3× substrate plus Inhibitor solution was prepared according to kits manual and added to the cells followed by a 30 second pulse centrifugation spin. The plate was then immediately read utilizing an Envision (Perkin Elmer) plate reader. The BRET signal is measured by taking the ratio of the emissions reading at 610 nm and 450 nm. Compound binding is based on the decrease BRET signal caused by the displacement of the K-5 tracer. […] IC50 value of compounds was determined by 4-parameter non-linear regression fitting of percent activity in GraphPad Prism software.
A general note: Bioluminescence resonance energy transfer reports proximity on the nanometre scale.

The target in assay [2] is T1, Axl. Briefly: HTRF KinEASE-TK biochemical potency, AXL. Also noted: purchased Invitrogen. The note with it: 5 nM AXL, 700 μM ATP. How it is done: Purified recombinant human AXL, TYRO3 and MER proteins were purchased from Invitrogen™. 10 nM AXL, 2 nM TYRO3 or MER were incubated with varying concentrations of compounds in 50 mM HEPES, pH 7.4, 10 mM MgCl2, 0.01% BSA, 1 mM DTT and 2% DMSO in a total volume of 20 μl in a 384-well microplate (Corning™ #3640) at RT for 1 h. The AXL, TYRO3 and MER enzymatic reaction was initiated by transferring 10 μl of enzyme and compound mixture into 10 μl of 1.6 μM TK Substrate-biotin (HTRF® KinEASE-TK kit, Cisbio) and 1400 μM ATP pre-incubated in 50 mM HEPES, pH 7.4, 10 mM MgCl2, 0.01% BSA, 1 mM DTT in a 384-well microplate (Corning™ #3640) at RT, giving the final reaction conditions: 5 nM AXL, 1 nM TYRO3 or MER, 800 nM TK Substrate-biotin and 700 μM ATP in 50 mM HEPES, pH 7.4, 10 mM MgCl2, 0.01% BSA, 1 mM DTT and 1% DMSO with varying concentrations of compounds. Following 2 h incubation at RT, the AXL, TYRO3 and MER enzymatic reaction was stopped by transfer of 10 μl of reaction into 10 μl of detection mix (400 nM Streptavidin-XL665, 200-fold dilution TK Antibody-Cryptate and detection buffer, HTRF® KinEASE-TK kit, Cisbio) in a white 384-well microplate (Perkin Elmer, OptiPlate 384). After 1 h incubation at RT, the plate was put into a plate reader (Evision) to read at 665/620 nm (acceptor/donor) for HTRF. The value of the DMSO blank (MIN inhibition=100% activity) was used as a negative control. The positive control was established by adding 5 μl of enzyme and DMSO mixture into 10 μl of detection mix followed by addition of 5 μl of TK Substrate-biotin and ATP mixture (MAX inhibition=0% activity). To calculate the percent activity, Equation 1 was used. Ratio665/620 is the value at a given compound concentration: […]
(In TR-FRET formats the signal depends on donor and acceptor labels being close together.)

A value given as a limit tells only on which side of the number the result lay.

The IC50 is the concentration at which inhibition is half-maximal. A higher IC50 goes with weaker potency. For the compound `O=C1NCCOc2cc(-c3n[nH]c4ncc(-c5ccc6c(c5)CCC(N5CCCC5)CC6)cc34)ccc21` (racemic) [Example 1, 8-{5-[7-(Pyrrolidin-1-yl)-6,7,8,9-tetrahydro-5H-benzo[7]annulen-2-yl]-1H-pyrazolo[3,4-b]pyridin-3-yl}-2,3,4,5-tetrahydro-1,4-benzoxazepin-5-one], the IC50 at Axl [1] and against Axl [2] was less than 100 nM in each case.

Consider `O=C1NCCOc2cc(-c3n[nH]c4ncc(-c5ccc6c(c5)CC[C@H](N5CCCC5)CC6)cc34)ccc21` (single isomer, unassigned) [Example 56], for which the concentration for half-maximal inhibition (IC50) at Axl [1] and against Axl [2] was less than 100 nM in each case.

Consider `O=C1NCCOc2cc(-c3n[nH]c4ncc(-c5ccc6c(c5)CC[C@@H](N5CCCC5)CC6)cc34)ccc21` (single isomer, unassigned) [Example 57], for which the half-inhibitory concentration (IC50) at Axl [1] and against Axl [2] was less than 100 nM each time.

In the case of `O=C1NCCOc2cc(-c3n[nH]c4ncc(-c5ccc6c(c5)CCC(N5CCCC5)C6)cc34)ccc21` (centres unmarked) [Example 2, 8-{5-[6-(Pyrrolidin-1-yl)-5,6,7,8-tetrahydronaphthalen-2-yl]-1H-pyrazolo[3,4-b]pyridin-3-yl}-2,3,4,5-tetrahydro-1,4-benzoxazepin-5-one], the IC50 on Axl [1] and on Axl [2] was less than 100 nM throughout.

Take `O=C1NCCOc2cc(-c3n[nH]c4ncc(-c5ccc6c(c5)CC(N5CCCC5)CC6)cc34)ccc21` (centres unmarked) [Example 3, 8-{5-[7-(Pyrrolidin-1-yl)-5,6,7,8-tetrahydronaphthalen-2-yl]-1H-pyrazolo[3,4-b]pyridin-3-yl}-2,3,4,5-tetrahydro-1,4-benzoxazepin-5-one]: the IC50 at Axl [1] was 100 to 1000 nM; at Axl [2], less than 100 nM.

With `O=C1NCCOc2cc(-c3n[nH]c4ncc(-c5ccc6c(c5)CCC(N[C@H]5CCOC5)C6)cc34)ccc21` (stereo partly drawn) [Example 4, 8-[5-(6-{[(3S)—Oxolan-3-yl]amino}-5,6,7,8-tetrahydronaphthalen-2-yl)-1H-pyrazolo[3,4-b]pyridin-3-yl]-2,3,4,5-tetrahydro-1,4-benzoxazepin-5-one], the IC50 at Axl [1] and at Axl [2] was less than 100 nM each time.

Turning to `O=C1NCCOc2cc(-c3n[nH]c4ncc(-c5ccc6c(c5)CCC(N[C@@H]5CCOC5)C6)cc34)ccc21` (stereo partly drawn) [Example 5, 8-[5-(6-{[(3R)—Oxolan-3-yl]amino}-5,6,7,8-tetrahydronaphthalen-2-yl)-1H-pyrazolo[3,4-b]pyridin-3-yl]-2,3,4,5-tetrahydro-1,4-benzoxazepin-5-one], the IC50 at Axl [1] and on Axl [2] was less than 100 nM each time.

`C[C@@H]1CCCN1C1CCc2ccc(-c3cnc4[nH]nc(-c5cc(F)c6c(c5)OCCNC6=O)c4c3)cc2CC1` (stereo partly drawn) [Example 6, 6-Fluoro-8-(5-{7-[(2R)-2-methylpyrrolidin-1-yl]-6,7,8,9-tetrahydro-5H-benzo[7]annulen-2-yl}-1H-pyrazolo[3,4-b]pyridin-3-yl)-2,3,4,5-tetrahydro-1,4-benzoxazepin-5-one]: the IC50 at Axl [1] and against Axl [2] was less than 100 nM throughout.

As to `O=C1NCCOc2cc(-c3n[nH]c4ncc(-c5ccc6c(c5)CCN(C5CCCC5)CC6)cc34)ccc21` [Example 7, 8-[5-(3-Cyclopentyl-2,3,4,5-tetrahydro-1H-3-benzazepin-7-yl)-1H-pyrazolo[3,4-b]pyridin-3-yl]-2,3,4,5-tetrahydro-1,4-benzoxazepin-5-one], the IC50 on Axl [1] and against Axl [2] was less than 100 nM throughout.

For the compound `O=C1NCCOc2cc(-c3n[nH]c4ncc(-c5ccc6c(c5)CCN(C5CCCC5)C6)cc34)ccc21` [Example 9, 8-(5-(2-Cyclopentyl-1,2,3,4-tetrahydroisoquinolin-6-yl)-1H-pyrazolo[3,4-b]pyridin-3-yl)-3,4-dihydrobenzo[f][1,4]oxazepin-5(2H)-one], the IC50 at Axl [1] and at Axl [2] was less than 100 nM throughout.
